This is an account of results in US9999616B2 (ZENITH EPIGENETICS LTD., priority 2013, dated 2018).

The structures appear in SMILES notation.

In test [1] the target is Brd4 bromodomain 1 (BRD4(1)) (Homo sapiens, UniProt O60885). As to the kind of experiment: Inhibition of tetra-acetylated histone H4 binding to Brd4 bromodomain 1, measured by FRET (HTRF). Set-up: made in house; host or cells: E. coli BL21(DE3). As to conditions: 2 h at room temperature. On the procedure:
Proteins were cloned and overexpressed with a N-terminal 6×His tag, then purified by nickel affinity followed by size exclusion chromatography. Briefly, E. coli BL21(DE3) cells were transformed with a recombinant expression vector encoding N-terminally Nickel affinity tagged bromodomains from Brd2, Brd3, Brd4. Cell cultures were incubated at 37° C. with shaking to the appropriate density and induced overnight with IPTG. The supernatant of lysed cells was loaded onto Ni-IDA column for purification. Eluted protein was pooled, concentrated and further purified by size exclusion chromatography. Fractions representing monomeric protein were pooled, concentrated, aliquoted, and frozen at −80° C. for use in subsequent experiments.
Binding of tetra-acetylated histone H4 and BET bromodomains was confirmed by a Homogenous Time Resolved Fluorescence Resonance Energy Transfer (HTRF®) method. N-terminally His-tagged bromodomains (200 nM) and biotinylated tetra-acetylated histone H4 peptide (25-50 nM, Millipore) were incubated in the presence of Europium Cryptate-labeled streptavidin (Cisbio Cat. #610SAKLB) and XL665-labeled monoclonal anti-His antibody (Cisbio Cat. #61HISXLB) in a white 96 well microtiter plate (Greiner). For inhibition assays, serially diluted test compound was added to these reactions in a 0.2% final concentration of DMSO. Duplicate wells were used for each concentration tested. Final buffer concentrations were 30 mM HEPES pH 7.4, 30 mM NaCl, 0.3 mM CHAPS, 20 mM phosphate pH 7.0, 320 mM KF, 0.08% BSA. After a 2 h incubation at room temperature, fluorescence was measured at 665 and 620 nm with a SynergyH4 plate reader (Biotek). The binding inhibitory activity was shown by a decrease in 665 nm relative to 620 nm fluorescence. IC50 values were determined from a dose response curve.

For test [2], the system named is Human AML MV-4-11 cells. The test is described as follows: Inhibition of cell proliferation in MV4-11 cells (CellTiter Aqueous One). The test is classed as cell-based. As to conditions: for IC50: MV4-11, 72 h; for Cell Proliferation activity: 72 h. The method, then:
MV4-11 cells (CRL-9591) were plated at a density of 5×10^4 cells per well in 96 well flat bottom plates and treated with increasing concentrations of test compound or DMSO (0.1%) in IMDM media containing 10% FBS and penicillin/streptomycin. Triplicate wells were used for each concentration and a well containing only media was used as a control. Plates were incubated at 37° C., 5% CO2 for 72 h before adding 20 µL of the CellTiter Aqueous One Solution (Promega) to each well and incubated at 37° C., 5% CO2 for an additional 3-4 h. The absorbance was read at 490 nm in a spectrophotometer and the percentage of cell titer relative to DMSO-treated cells was calculated after correcting for background by subtracting the blank well's signal. IC50 values were calculated using the GraphPad Prism software.

In test [3] the test system is hIL-6 mRNA. As to the kind of experiment: Inhibition of hIL-6 mRNA transcription in LPS-stimulated U937 macrophages. As to conditions: 1 h pretreatment, LPS 3 h; for IC50: Homo sapiens, U-937, PMA-differentiated U937 cells, read-out: IL-6 activity; for IL-6 activity: PMA-differentiated U937 cells. Format: cell-based, Human. The method, then:
Human leukemic monocyte lymphoma U937 cells (CRL-1593.2) were plated at a density of 3.2×10^4 cells per well in a 96-well plate in 100 μL RPMI-1640 containing 10% FBS and penicillin/streptomycin, and differentiated into macrophages for 3 days in 60 ng/mL PMA ([…]) at 37° C. in 5% CO2 prior to the addition of compound. The cells were pretreated for 1 h with increasing concentrations of test compound in 0.1% DMSO prior to stimulation with 1 ug/mL lipopolysaccharide from Escherichia coli. Triplicate wells were used for each concentration. The cells were incubated at 37° C., 5% CO2 for 3 h before the cells were harvested. At time of harvest, media was removed and cells were rinsed in 200 μL PBS. Cells were harvested using the mRNA Catcher PLUS kit according to manufacturer's instructions. The eluted mRNA was then used in a one-step quantitative real-time PCR reaction using components of the RNA UltraSense™ One-Step Kit (Life Technologies) together with Applied Biosystems TaqMan® primer-probes for hIL-6 and Cyclophilin. Real-time PCR plates were run on a ViiA™7 real time PCR machine (Applied Biosystems), data was analyzed, normalizing the Ct values for hlL-6 to an internal control, prior to determining the fold expression of each sample, relative to the control.

In test [4] the test system is c-myc in Human AML MV4-11 cells. The test is described as follows: Inhibition of cMYC expression (mRNA, real-time PCR) in MV4-11 cells. The test is classed as cell-based. As to conditions: 3 h treatment, cMYC mRNA by real-time PCR. On the procedure: MV4-11 cells (CRL-9591) were plated at a density of 2.5×10^4 cells per well in 96 well U-bottom plates and treated with increasing concentrations of test compound or DMSO (0.1%) in IMDM media containing 10% FBS and penicillin/streptomycin, and incubated for 3 h at 37′C. Triplicate wells were used for each concentration. Cells were pelleted by centrifugation and harvested using the mRNA Catcher PLUS kit according to manufacturer's instructions. The eluted mRNA isolated was then used in a one-step quantitative real-time PCR reaction, using components of the RNA UltraSense™ One-Step Kit (Life Technologies) together with Applied Biosystems TaqMan® primer-probes for cMYC and Cyclophilin. Real-time PCR plates were run on a ViiA™7 real time PCR machine (Applied Biosystems), data was analyzed, normalizing the Ct values for cMYC to an internal control, prior to determining the fold expression of each sample, relative to the control.

Take `Cc1noc(C)c1-c1cc(-c2cccc(C#N)c2)c2nc[nH]c2c1` [Example Compound 2, 3-(6-(3,5-dimethylisoxazol-4-yl)-1H-benzo[d]imidazol-4-yl) benzonitrile]: the IC50 in test [1] is at most 300 nM; in test [2] it was 300 to 3000 nM; in test [3], 300 to 3000 nM; in test [4], 300 to 3000 nM.

Regarding `Cc1noc(C)c1-c1cc(-c2c(C)noc2C)c2nccn2c1` [Example Compound 8, 4,4′-(imidazo [1,2-a]pyridine-6,8-diyl) bis(3,5-dimethylisoxazole)], the IC50 in test [1] fell in the range of 300 to 3000 nM. Besides, the “Cell Proliferation activity” value in test [2] is recorded as “Not active”. Further, the IL-6 activity result in test [3] is on record as “Not active”.

Turning to `Cc1noc(C)c1-c1cc(-c2cncnc2)c2nc[nH]c2c1` [Example Compound 22, 3,5-dimethyl-4-(4-(pyrimidin-5-yl)-1H-benzo[d]imidazol-6-yi)isoxazole], the IC50 in test [1] and in test [3] was 300 to 3000 nM throughout. Also, the “Cell Proliferation activity” value in test [2] is listed as “Not active”.

For the molecule `Cc1noc(C)c1-c1cc(Nc2ncccn2)c2nc[nH]c2c1` [Example Compound 43, 6-(3,5-dimethyl-isoxazol-4-yl)-N-(pyrimidin-2-yl)-1H-benzo[d] imidazol-4-amine], the results for the IC50 in test [1], in test [2] and in test [3] were at most 300 nM, 3000 to 30000 nM and 300 to 3000 nM, respectively.

As to `COc1nccc(C)c1-c1cc(-c2c(C)noc2C)cc2[nH]c(C)nc12` [Example Compound 114, 4-(4-(2-methoxy-4-methyl-pyridin-3-yl)-2-methyl-1H-benzo[d]imidazol-6-yl)-3,5-dimethyl isoxazole], the figures for the IC50 in test [1] and in test [3] were 300 to 3000 nM and at most 300 nM, respectively.

Turning to `Cc1nc2c(N3C(=O)CCC3C)cc(-c3c(C)noc3C)cc2[nH]1` (centres unmarked) [Example Compound 121, 1-(6-(3,5-dimethylisoxazol-4-yl)-2-methyl-1H-benzo[d]imidazol-4-yl)-5-methylpyrrolidin-2-one], the IC50 in test [1] and in test [3] was 300 to 3000 nM in each case. For the same molecule, the “Cell Proliferation activity” value in test [2] was “Not active”.

As to `Cc1nc2c(-c3cccc(S(C)(=O)=O)c3)cc(-c3c(C)noc3C)cc2[nH]1` [Example Compound 154, 3,5-dimethyl-4-(2-methyl-4-(3-(methyl-sulfonyl)phenyl)-1H-benzo[d]imidazol-6-yl)isoxazole], the IC50 in test [1] was at most 300 nM; in test [2] it was 300 to 3000 nM; in test [3], at most 300 nM.

In the case of `Cc1nc2c(/C=C/c3ccccc3)cc(-c3c(C)noc3C)cc2[nH]1` [Example Compound 158, (E)-3,5-dimethyl-4-(2-methyl-4-styryl-1H-benzo[d]imidazol-6-yl)isoxazole], the IC50 in test [1] is at most 300 nM; in test [2], 300 to 3000 nM; in test [3], 300 to 3000 nM.

In the case of `Cc1nc2c(NC(=O)c3ccccc3)cc(-c3c(C)noc3C)cc2[nH]1` [Example Compound 165, N-(6-(3,5-dimethyl-isoxazol-4-yl)-2-methyl-1H-benzo[d]imidazol-4-yl)benzamide], the figures for the IC50 in test [1], in test [2] and in test [3] were 300 to 3000 nM, 3000 to 30000 nM and 300 to 3000 nM, respectively.

On to `Cc1nc2c(Oc3cc(C(=O)O)ccc3C)cc(-c3c(C)noc3C)cc2[nH]1` [Example Compound 175, 3-((6-(3,5-dimethylisoxazol-4-yl)-2-methyl-1H-benzo[d]imidazol-4-yl)oxy)-4-methylbenzoic acid], for which the IC50 in test [1] is at most 300 nM. For the same molecule, in test [2], the “Cell Proliferation activity” value is “Not active”. For the same molecule, the IL-6 activity result in test [3] is on record as “Not active”.

Consider `Cc1ccc(C#N)cc1-c1cc(-c2c(C)noc2C)cc2[nH]c(NC3CCOCC3)nc12` [Example Compound 198, 3-(6-(3,5-dimethyl-isoxazol-4-yl)-2-((tetrahydro-2H-pyran-4-yl)amino)-1H-benzo[d]imidazol-4-yl)-4-methyl benzonitrile], for which the IC50 in test [1], in test [2] and in test [4] was at most 300 nM throughout.

For the molecule `Cc1ccc(C(N)=O)cc1-c1cc(-c2c(C)noc2C)cc2[nH]c(NC3CCOCC3)nc12` [Example Compound 200, 3-(6-(3,5-dimethyl-isoxazol-4-yl)-2-((tetrahydro-2H-pyran-4-yl)amino)-1H-benzo[d]imidazol-4-yl)-4-methyl benzamide], the IC50 in test [1], in test [2] and in test [4] was at most 300 nM throughout.

Regarding `Cc1noc(C)c1-c1cc(-c2cccc(C(N)=O)c2C)c2nc(N3CCOCC3)[nH]c2c1` [Example Compound 208, 3-(6-(3,5-dimethyl-isoxazol-4-yl)-2-morpholino-1H-benzo[d]imidazol-4-yl)-2-methyl benzamide], the IC50 in test [1] and in test [3] was at most 300 nM throughout.

As for `Cc1ccc(C#N)cc1-c1cc(-c2c(C)noc2C)cc2[nH]c(NCc3cccnc3)nc12` [Example Compound 211, 3-(6-(3,5-dimethyl-isoxazol-4-yl)-2-((pyridin-3-ylmethyl)amino)-1H-benzo[d]imidazol-4-yl)-4-methyl-benzonitrile], the IC50 in test [1] was at most 300 nM; in test [3], 300 to 3000 nM.

Take `Cc1noc(C)c1-c1cc(-c2c(C)nn(C)c2C)c2nc(NCc3ccccc3)[nH]c2c1` [Example Compound 212, N-benzyl-6-(3,5-dimethyl-isoxazol-4-yl)-4-(1,3,5-trimethyl-1H-pyrazol-4-yl)-1H-benzo[d] imidazol-2-amine]: the IC50 in test [1] and in test [3] was at most 300 nM each time.

For the molecule `Cc1noc(C)c1-c1cc(-c2c(C)nn(C)c2C)c2nc(N3CCCC3)[nH]c2c1` [Example Compound 213, 3,5-dimethyl-4-(2-(pyrrolidin-1-yl)-4-(1,3,5-trimethyl-1H-pyrazol-4-yl)-1H-benzo[d]imidazol-6-yl)isoxazole], the IC50 in test [1] and in test [3] was at most 300 nM throughout.

As for `Cc1ccc(C#N)cc1-c1cc(-c2c(C)noc2C)cc2[nH]c(N3CCCC3)nc12` [Example Compound 215, 3-(6-(3,5-dimethylisoxazol-4-yl)-2-(pyrrolidin-1-yl)-1H-benzo[d]imidazol-4-yl)-4-methylbenzonitrile], the IC50 is at most 300 nM in test [1], 300 to 3000 nM in test [3] and at most 300 nM in test [4].

In the case of `Cc1noc(C)c1-c1cc(-c2cccc(C#N)c2C)c2nc(NC3CCN(C)CC3)[nH]c2c1` [Example Compound 216, 3-(6-(3,5-dimethyl-isoxazol-4-yl)-2-((1-methyl-piperidin-4-yl)amino)-1H-benzo[d]imidazol-4-yl)-2-methyl benzonitrile], the IC50 in test [1] was at most 300 nM; in test [3] it was at most 300 nM; in test [4], 300 to 3000 nM.
